Columns and labels:
[1] = molecular target: T1, Rat Kidney Medullary V2 Receptors (Rattus norvegicus, UniProt Q00788); test: Binding Assay to Rat Kidney Medullary V2 Receptors; settings: for IC50: rat kidney medulla membranes, read-out: V2 IC50
T1 construct: Medullary tissues from rat kidneys are dissected out; from tissue; host or cells: rat kidney medulla membranes
Method in brief: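 Membranes were prepared from rat kidney medulla and stored in 50.0 mM Tris-HCl pH 7.4 with 0.2% BSA and 0.1 mM PMSF. Radioligand competition ran 120 min at bench temperature, with 1.0 μM unlabeled ligand defining nonspecific binding. Compounds were added in 50% DMSO; filtration, tritium scintillation counting, IC50 from competition analysis.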

[2] = molecular target: T2, oxytocin receptors (Rattus norvegicus, UniProt P70536); test: Oxytocin Receptor Binding; settings: for inhibition at 10 µM: [3H]oxytocin; for IC50: 1.0 nM [3H]oxytocin
T2 construct: The uteri are dissected out, cleaned of fat and connective tissues; from tissue; host or cells: uterus of DES-treated female Sprague-Dawley rats
T2 sequence (P70536 1-388): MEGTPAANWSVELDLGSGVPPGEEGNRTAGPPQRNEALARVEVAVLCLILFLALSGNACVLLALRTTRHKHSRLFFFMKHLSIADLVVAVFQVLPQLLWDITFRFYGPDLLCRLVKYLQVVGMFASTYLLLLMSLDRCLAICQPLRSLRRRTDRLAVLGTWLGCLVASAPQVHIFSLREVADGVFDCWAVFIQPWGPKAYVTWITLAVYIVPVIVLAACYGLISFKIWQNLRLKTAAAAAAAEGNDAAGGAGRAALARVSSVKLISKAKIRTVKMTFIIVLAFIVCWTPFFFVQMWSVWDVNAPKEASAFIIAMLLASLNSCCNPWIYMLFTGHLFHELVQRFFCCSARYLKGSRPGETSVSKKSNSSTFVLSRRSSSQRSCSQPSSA
Protocol: Oxytocin Receptor Binding
Female Sprague-Dawley rats weighing approximately 200-250 g are injected intramuscularly (i.m.) with 0.3 mg/kg of body weight of diethylstilbestrol (DES). The rats are sacrificed 18 hours later under pentobarbital anesthesia. The uteri are dissected out, cleaned of fat and connective tissues and rinsed in 50 ml of normal saline. The tissue pooled from six rats is homogenized in 50 ml of […] Tris.HCl, containing 0.5 mM dithiothreitol and 1.0 mM EDTA, adjusted to pH 7.4, using a polytron at setting 6 with three passes of 10 sec each. The homogenate is passed through two (2) layers of cheesecloth and the filtrate centrifuged at 1000× g for 10 min. The clear supernatant is removed and recentrifuged at 165,000× g for 30 min. The resulting pellet containing the oxytocin receptors is resuspended in 50.0 mM Tris.HCl containing 5.0 mM MgCl2 at pH 7.4, to give a protein concentration of 2.5 mg/ml of tissue suspension. This preparation is used in subsequent binding assays with [^3 H]Oxytocin.
Binding of 3,5-[^3 H]Oxytocin ([^3 H]OT) to its receptors is done in microtiter plates using [^3 H]OT, at various concentrations, in an assay buffer of 50.0 mM Tris.HCl, pH 7.4 and containing 5.0 mM MgCl2, and a mixture of protease inhibitors: BSA, 0.1 mg; aprotinin, 1.0 mg; 1,10-phenanthroline, 2.0 mg; […], 10.0 mg; and PMSF, 0.3 mg per 100 ml of buffer solution. Non-specific binding is determined in the presence of 1.0 uM unlabeled OT. The binding reaction is terminated after 60 min , at 22° C. by rapid filtration through glass fiber filters using a Brandel® cell harvester (Biomedical Research and Development Laboratories, Inc., Gaithersburg, Md.). Competition experiments are conducted at equilibrium using 1.0 nM [^3 H]OT and varying the concentration of the displacing agents. The concentrations of agent displacing 50% of [^3 H]OT at its sites (IC50) are calculated by a computer assisted LUNDON-2 program (LUNDON SOFTWARE INC., Ohio, USA).

[3] = molecular target: T3, Rat Hepatic V1 Receptors (Rattus norvegicus, UniProt P30560); test: Binding Assay to Rat Hepatic V1 Receptors; settings: for IC50: rat liver membranes, read-out: V1 IC50
T3 construct: Rat liver plasma membranes expressing the vasopressin V1 receptor subtypes; from tissue; host or cells: rat liver plasma membranes
T3 sequence (P30560 whole entry): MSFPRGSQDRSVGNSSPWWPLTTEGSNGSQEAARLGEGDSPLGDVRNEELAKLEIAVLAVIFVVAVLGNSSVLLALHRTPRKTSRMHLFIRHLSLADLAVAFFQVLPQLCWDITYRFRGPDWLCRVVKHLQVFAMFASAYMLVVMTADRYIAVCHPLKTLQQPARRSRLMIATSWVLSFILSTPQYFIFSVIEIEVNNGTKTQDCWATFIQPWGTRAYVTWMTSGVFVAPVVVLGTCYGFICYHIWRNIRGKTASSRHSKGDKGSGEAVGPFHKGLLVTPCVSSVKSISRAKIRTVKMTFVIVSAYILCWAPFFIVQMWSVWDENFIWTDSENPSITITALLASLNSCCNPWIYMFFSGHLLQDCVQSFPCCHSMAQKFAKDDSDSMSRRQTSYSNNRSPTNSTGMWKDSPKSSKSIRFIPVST

[4] = test system: Vasopressin V2; test: Vasopressin V2 Antagonist Activity in Conscious Hydrated Rats; assay type: in vivo, rat; settings: AVP 0.4 μg/kg i.p.
Method in brief: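 Four-hour urine output, osmolality and electrolytes (Na+, K+, Cl−) recorded in water-loaded rats (30 mL/kg deionized water orally) given AVP i.p. at 0.4 μg/kg. Test compounds were given orally at 0.1–100 mg/kg 1 h before AVP; 2–4 rats per compound.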

[5] = test system: Vasopressin V1; test: Vasopressin V1 Antagonist Activity in Conscious Rats (vasopressin vasopressor response); assay type: in vivo, rat; design: Average Change: unit not given here; settings: for % Inhibition / Average Change: SHR
Method in brief: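 Conscious rats are restrained supine, and under local 2% procaine a PE 10/20 cannula is passed through the ventral caudal tail artery into the lower abdominal aorta. The caudal vein is cannulated for intravenous dosing. Blood pressure is recorded with a Statham P23Db transducer, and vasopressin injections are repeated after compound dosing. Percent antagonism is calculated against the pre-drug vasopressor response taken as 100%.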

[6] = 10 mg/kg i.v., VAS 0.01 i.u./kg, 30 min
[7] = 10 mg/kg i.v., VAS 0.01 i.u./kg, 60 min
[8] = 10 mg/kg i.v., VAS 0.01 i.u./kg, 90 min
[9] = 10 mg/kg i.v., VAS 0.01 i.u./kg, 120 min
[10] = 10 mg/kg i.v., VAS 0.01 i.u./kg, 180 min
[11] = 10 mg/kg i.v., VAS 0.01 i.u./kg, 240 min
[12] = 10 mg/kg i.v., VAS 0.01 i.u./kg, 300 min
[13] = 10 mg/kg i.v., VAS 0.02 i.u./kg, 30 min
[14] = 10 mg/kg i.v., VAS 0.02 i.u./kg, 60 min
[15] = 10 mg/kg i.v., VAS 0.02 i.u./kg, 90 min
[16] = 10 mg/kg i.v., VAS 0.02 i.u./kg, 120 min
[17] = 10 mg/kg i.v., VAS 0.02 i.u./kg, 180 min
[18] = 10 mg/kg i.v., VAS 0.02 i.u./kg, 240 min
[19] = 10 mg/kg i.v., VAS 0.02 i.u./kg, 300 min

T1 sequence (Q00788 whole entry): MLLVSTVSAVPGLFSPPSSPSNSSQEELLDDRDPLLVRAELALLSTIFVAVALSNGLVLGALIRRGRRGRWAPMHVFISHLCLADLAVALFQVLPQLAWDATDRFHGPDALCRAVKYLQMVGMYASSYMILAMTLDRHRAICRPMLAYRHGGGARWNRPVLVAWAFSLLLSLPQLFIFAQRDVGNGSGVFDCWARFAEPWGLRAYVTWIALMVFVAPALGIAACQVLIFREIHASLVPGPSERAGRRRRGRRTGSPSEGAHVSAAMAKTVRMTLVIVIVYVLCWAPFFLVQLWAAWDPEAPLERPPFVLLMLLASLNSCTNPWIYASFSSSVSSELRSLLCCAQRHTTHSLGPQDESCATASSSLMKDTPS

Compound	inhibition at 10 µM [2]	IC50 [1]	IC50 [3]	Osmolality ([4]; 10 mg/kg orally)	Urine Volume ([4]; 10 mg/kg orally)	% Inhibition [5, 6]	Average Change [5, 6]	% Inhibition [5, 7]	Average Change [5, 7]	% Inhibition [5, 8]	Average Change [5, 8]	% Inhibition [5, 9]	Average Change [5, 9]	% Inhibition [5, 10]	Average Change [5, 10]	% Inhibition [5, 11]	Average Change [5, 11]	% Inhibition [5, 12]	Average Change [5, 12]	% Inhibition [5, 13]	other results
O=C(CN1CCOCC1)N(Cc1ccccc1Cl)c1ccc(C(=O)N2Cc3cccn3Cc3ccccc32)cc1 [Example 591, N-[(2-Chlorophenyl)methyl]-N-[4-(5H-pyrrolo[2,1-c][1,4]benzodiazepin-10(11H) -ylcarbonyl)phenyl]-4-morpholineacetamide]	29%																				inhibition at 10 µM ([1]; 10 μM, rat): 64%; inhibition at 10 µM ([3]; 2 h, 10 μM, rat): 45%
O=C(Nc1ccc(C(=O)N2Cc3ccc(CN4CCOCC4)n3Cc3ccccc32)cc1)c1ccc(Cl)cc1Cl [Example 666, N-[4-[[3-(4-morpholinomethyl)-5H-pyrrolo[2,1-c][1,4]benzodiazepin-10(11H)-yl]carbonyl]phenyl]-2,4-dichlorobenzamide]	83%	0.013 µM	0.16 µM																		IC50 [2]: 2.1 µM
CCN(CC)Cc1ccc2n1Cc1ccccc1N(C(=O)c1ccc(NC(=O)c3ccc(Cl)cc3Cl)cc1)C2 [Example 667, N-[4-[[3-[(diethylamino)methyl]-5H-pyrrolo[2,1-c][1,4]benzodiazepin-10(11H)-yl]carbonyl]phenyl]-2,4-dichlorobenzamide]	89%	0.013 µM	0.17 µM																		IC50 [2]: 1.6 µM
Cc1c(F)cccc1C(=O)Nc1ccc(C(=O)N2Cc3cccn3Cc3ccccc32)cc1 [Example 466, N-[4-(5H-pyrrolo[2,1-c][1,4]benzodiazepin-10(11H)-ylcarbonyl)phenyl]-3-fluoro-2-methylbenzamide]		0.004 µM	0.026 µM	522 mOsm/kg	14.1 ml/4 hrs																Max. % Inhibition ([5]; 30 mg/kg i.v.): 94%; Time (of max. % inhibition) ([5]; 30 mg/kg i.v.): 94 min
Cc1cc(C(=O)N2Cc3cccn3Cc3ccccc32)ccc1NC(=O)c1ccc(Cl)cc1Cl [Example 99, N-[4-(5H-pyrrolo[2,1-c][1,4]-benzodiazepin-10(11H)-yl-carbonyl)-2-methylphenyl]-2,4-dichlorobenzamide]		0.01 µM	0.027 µM			74%	9.5	29%	25.5	47%	19	76%	8.5	68%	11.5	50%	18	44%	20	64%	Osmolality ([4]; 30 mg/kg orally): 334 mOsm/kg; Urine Volume ([4]; 30 mg/kg orally): 15.2 ml/4 hrs; Max. % Inhibition ([5]; 10 mg/kg i.v.): 76%; Time (of max. % inhibition) ([5]; 10 mg/kg i.v.): 120 min; Average Change [5, 13]: 13; % Inhibition [5, 14]: 72%; Average Change [5, 14]: 10; % Inhibition [5, 15]: 26%; Average Change [5, 15]: 26.5; % Inhibition [5, 16]: 53%; Average Change [5, 16]: 17; % Inhibition [5, 17]: 44%; Average Change [5, 17]: 20; % Inhibition [5, 18]: 40%; Average Change [5, 18]: 21.5; % Inhibition [5, 19]: 38%; Average Change [5, 19]: 22.5
O=C(Nc1ccc(C(=O)N2Cc3cccn3Cc3ccccc32)cc1)c1cccc(F)c1F [Example 1]		0.029 µM	0.097 µM			88%	4	51%	16.5	37%	21	33%	22.5	13%	29	19%	27	4%	32	85%	Osmolality ([4]; 30 mg/kg orally): 1504 mOsm/kg; Urine Volume ([4]; 30 mg/kg orally): 1.1 ml/4 hrs; Average Change [5, 13]: 8; % Inhibition [5, 14]: 62%; Average Change [5, 14]: 20; % Inhibition [5, 15]: 49%; Average Change [5, 15]: 27; % Inhibition [5, 16]: 29%; Average Change [5, 16]: 37.5; % Inhibition [5, 17]: 9%; Average Change [5, 17]: 48; % Inhibition [5, 18]: 25%; Average Change [5, 18]: 39.5; % Inhibition [5, 19]: 25%; Average Change [5, 19]: 39.5
Cc1ccccc1NC(=O)c1ccc(C(=O)N2Cc3cccn3Cc3ccccc32)cc1 [Example 484, N-(2-Methylphenyl)-4-(5H-pyrrolo[2,1-c][1,4]-benzodiazepin-10(11H)-ylcarbonyl)benzamide]		0.025 µM	0.097 µM	785 mOsm/kg	8 ml/4 hrs																Max. % Inhibition ([5]; 10 mg/kg i.v.): 79%; Time (of max. % inhibition) ([5]; 10 mg/kg i.v.): 300 min; Max. % Inhibition ([5]; 30 mg/kg p.o.): 22%; Time (of max. % inhibition) ([5]; 30 mg/kg p.o.): 180 min
Cc1ccccc1C(=O)Nc1ccc(C(=O)N2Cc3cccn3-c3ccccc32)cc1 [Example 14, 2-Methyl-N-[4-(pyrrolo[1,2-a]quinoxalin-5 (4H)-ylcarbonyl)phenyl]benzamide]		0.066 µM	0.17 µM	836 mOsm/kg	5.2 ml/4 hrs	25%	26	23%	26.5	39%	21	23%	26.5	6%	32.5	17%	28.5	26%	25.5	20%	Osmolality ([4]; 3 mg/kg orally): 1000 mOsm/kg; Urine Volume ([4]; 3 mg/kg orally): 4.5 ml/4 hrs; Average Change [5, 13]: 38; % Inhibition [5, 14]: 34%; Average Change [5, 14]: 31.5; % Inhibition [5, 15]: 16%; Average Change [5, 15]: 40; % Inhibition [5, 16]: 17%; Average Change [5, 16]: 39.5; % Inhibition [5, 17]: -9%; Average Change [5, 17]: 52; % Inhibition [5, 18]: 25%; Average Change [5, 18]: 35.5; % Inhibition [5, 19]: 16%; Average Change [5, 19]: 40
